In PMC13242511, “Disrupting Notch signalling by a small molecule inhibiting dihydroorotate dehydrogenase activity” (Scientific Reports, 2026):
Where “and” joins values, the source holds several entries; their conditions need not be identical. Identical values can stand only once. Like-named read-outs stand apart in the source and are kept apart here. Blank lines part the entries; values can stand above or below the compound they belong to.

Assays:
Type in all cases: cell-based
Notch signalling [1] = experiment: Notch reporter assay (12xCSL firefly luciferase / renilla luciferase, HEK293T Notch1ΔE reporter cell line clone #A1-11); conditions: 24 h, unit from Fig. 2 legend
γ-secretase complex = γ-secretase complex (Homo sapiens, UniProt P49768); experiment: APP-C99 counter assay (GSI reporter assay); set-up: AUC APP: scale not given here; conditions: for 3p-DR in % of DMSO counter: APP-C99 counter assay
In short: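 Cells transfected with APP-C99 firefly luciferase reporter plus renilla normalization plasmid, seeded 24 h later onto compound plates and cultured 24 h. Dual luciferase read in triplicate per concentration; IC50 from variable-slope log(inhibitor) fit, with AUC also calculated from dose–response curves.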

Notch signalling [2] = experiment: Notch reporter assay (12xCSL firefly luciferase / renilla luciferase, HEK293T Notch1ΔE reporter cell line clone #A1-11); set-up: AUC Notch: scale not given here; Confirmation screen: unit not given here; conditions: for inhibitor ratio in % of DMSO in 3 point DR: 3-point DR confirmation screen, Notch reporter assay
In short: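 Compounds at two-fold concentration in 10 µl medium were brought to one-fold by adding 10 µl holding 4000 Notch reporter cells (clone #A1-11) per well of a 384-well plate. After 24 h, Promega dual-GLO firefly and renilla luciferase were read on a SpectraMaxi3. Dose-response curves were fitted with a log(inhibitor) vs. response variable-slope model.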

[3] = 10 µM, sheet conf vs counter 10 µM
[4] = 25 µM, sheet "conf vs counter 25 µM", same values given as % of DMSO in sheet "3p-DR in % of DMSO counter"
[5] = 10 µM, sheet conf vs counter 10 µM, same values as 3-point DR confirmation screen
[6] = 25 µM, Notch reporter 3-point dose-confirmation assay, sheet "conf vs counter 25 µM"
[7] = 9p dose response, AUCs averaged when replicates available
[8] = 14p dose response, AUCs averaged when replicates available
[9] = 14p dose response, log10 of averaged IC50
[10] = area under the 14-point dose-response curve, replicates averaged
[11] = overview in comparison to compound C, Supplemental Fig. 9

SMILES: NC(=O)c1[nH]nc(C2OC(CO)C(O)C2O)c1O (stereo not drawn) [CBK201236]
Primary screen at 10 µM (Notch reporter signal) (Notch signalling [1]): 54.3 % of DMSO
3p-DR in % of DMSO counter (γ-secretase complex; 10µM): 107.3 % of DMSO
Counter screen (Hek APP-C99) (γ-secretase complex; [3]): 107.3
3p-DR in % of DMSO counter (γ-secretase complex; 25µM): 111.1 % of DMSO
Counter screen (Hek APP-C99) (γ-secretase complex; [4]): 111.1
3p-DR in % of DMSO counter (γ-secretase complex; 1,25µM): 135.7 % of DMSO
inhibitor ratio in % of DMSO in 3 point DR (Notch signalling [2]; 10µM): 67.4 % of DMSO
Confirmation screen (Notch signalling [2]; [5]): 67.4
inhibitor ratio in % of DMSO in 3 point DR (Notch signalling [2]; 25µM): 65.5 % of DMSO
Confirmation screen (Notch signalling [2]; [6]): 65.5
inhibitor ratio in % of DMSO in 3 point DR (Notch signalling [2]; 1,25µM): 68.2 % of DMSO

SMILES: NC(=O)c1c(NC(=S)NC(NC(=O)c2ccccc2)C(Cl)(Cl)Cl)sc2c1CCCC2 (stereo not drawn) [CBK261048]
Primary screen at 10 µM (Notch reporter signal) (Notch signalling [1]): 67.0 % of DMSO
3p-DR in % of DMSO counter (γ-secretase complex; 10µM): 72.6 % of DMSO
Counter screen (Hek APP-C99) (γ-secretase complex; [3]): 72.6
3p-DR in % of DMSO counter (γ-secretase complex; 25µM): 66.8 % of DMSO
Counter screen (Hek APP-C99) (γ-secretase complex; [4]): 66.8
3p-DR in % of DMSO counter (γ-secretase complex; 1,25µM): 111.1 % of DMSO
inhibitor ratio in % of DMSO in 3 point DR (Notch signalling [2]; 10µM): 66.7 % of DMSO
Confirmation screen (Notch signalling [2]; [5]): 66.7
inhibitor ratio in % of DMSO in 3 point DR (Notch signalling [2]; 25µM): 49.9 % of DMSO
Confirmation screen (Notch signalling [2]; [6]): 49.9
inhibitor ratio in % of DMSO in 3 point DR (Notch signalling [2]; 1,25µM): 102.1 % of DMSO

SMILES: O=C(Nc1ccc(O)c(-c2nc3ccccc3o2)c1)c1ccc(-c2ccc([N+](=O)[O-])cc2)o1 [CBK263439]
Primary screen at 10 µM (Notch reporter signal) (Notch signalling [1]): 63.7 % of DMSO
3p-DR in % of DMSO counter (γ-secretase complex; 10µM): 127.0 % of DMSO
Counter screen (Hek APP-C99) (γ-secretase complex; [3]): 127.0
3p-DR in % of DMSO counter (γ-secretase complex; 25µM): 166.0 % of DMSO
Counter screen (Hek APP-C99) (γ-secretase complex; [4]): 166.0
3p-DR in % of DMSO counter (γ-secretase complex; 1,25µM): 130.0 % of DMSO
inhibitor ratio in % of DMSO in 3 point DR (Notch signalling [2]; 10µM): 110.7 % of DMSO
Confirmation screen (Notch signalling [2]; [5]): 110.7
inhibitor ratio in % of DMSO in 3 point DR (Notch signalling [2]; 25µM): 101.9 % of DMSO
Confirmation screen (Notch signalling [2]; [6]): 101.9
inhibitor ratio in % of DMSO in 3 point DR (Notch signalling [2]; 1,25µM): 103.9 % of DMSO

SMILES: O=C(NC(Nc1cccc(C(F)(F)F)c1)C(=O)c1ccccc1)c1ccc(Cl)cc1 (stereo not drawn) [CBK263585]
Primary screen at 10 µM (Notch reporter signal) (Notch signalling [1]): 61.4 % of DMSO
3p-DR in % of DMSO counter (γ-secretase complex; 10µM): 79.4 % of DMSO
Counter screen (Hek APP-C99) (γ-secretase complex; [3]): 79.4
3p-DR in % of DMSO counter (γ-secretase complex; 25µM): 84.5 % of DMSO
Counter screen (Hek APP-C99) (γ-secretase complex; [4]): 84.5
3p-DR in % of DMSO counter (γ-secretase complex; 1,25µM): 97.7 % of DMSO
inhibitor ratio in % of DMSO in 3 point DR (Notch signalling [2]; 10µM): 59.9 % of DMSO
Confirmation screen (Notch signalling [2]; [5]): 59.9
inhibitor ratio in % of DMSO in 3 point DR (Notch signalling [2]; 25µM): 46.6 % of DMSO
Confirmation screen (Notch signalling [2]; [6]): 46.6
inhibitor ratio in % of DMSO in 3 point DR (Notch signalling [2]; 1,25µM): 104.0 % of DMSO

SMILES: COc1ccc(N(CC(O)CN2CCOCC2)S(=O)(=O)c2ccccc2)cc1 (stereo not drawn) [CBK263589]
Primary screen at 10 µM (Notch reporter signal) (Notch signalling [1]): 69.0 % of DMSO
3p-DR in % of DMSO counter (γ-secretase complex; 10µM): 81.1 % of DMSO
Counter screen (Hek APP-C99) (γ-secretase complex; [3]): 81.1
3p-DR in % of DMSO counter (γ-secretase complex; 25µM): 76.7 % of DMSO
Counter screen (Hek APP-C99) (γ-secretase complex; [4]): 76.7
3p-DR in % of DMSO counter (γ-secretase complex; 1,25µM): 74.5 % of DMSO
inhibitor ratio in % of DMSO in 3 point DR (Notch signalling [2]; 10µM): 96.3 % of DMSO
Confirmation screen (Notch signalling [2]; [5]): 96.3
inhibitor ratio in % of DMSO in 3 point DR (Notch signalling [2]; 25µM): 100.1 % of DMSO
Confirmation screen (Notch signalling [2]; [6]): 100.1
inhibitor ratio in % of DMSO in 3 point DR (Notch signalling [2]; 1,25µM): 103.6 % of DMSO

Further lines, with some results ahead:

3p-DR in % of DMSO counter (γ-secretase complex; 10µM): 31.9 % of DMSO
Counter screen (Hek APP-C99) (γ-secretase complex; [3]): 31.8
3p-DR in % of DMSO counter (γ-secretase complex; 25µM): 19.5 % of DMSO
Counter screen (Hek APP-C99) (γ-secretase complex; [4]): 19.5
3p-DR in % of DMSO counter (γ-secretase complex; 1,25µM): 104.9 % of DMSO
SMILES: CC(C)Nc1cncc(OCc2ccc(Cl)c(Cl)c2)n1 [CBK115653]
Primary screen at 10 µM (Notch reporter signal) (Notch signalling [1]): 41.7 % of DMSO
inhibitor ratio in % of DMSO in 3 point DR (Notch signalling [2]; 10µM): 44.3 % of DMSO
Confirmation screen (Notch signalling [2]; [5]): 44.3
inhibitor ratio in % of DMSO in 3 point DR (Notch signalling [2]; 25µM): 30.6 % of DMSO
Confirmation screen (Notch signalling [2]; [6]): 30.6
inhibitor ratio in % of DMSO in 3 point DR (Notch signalling [2]; 1,25µM): 102.4 % of DMSO

Hill-Slope 9p APP counter assay averaged (γ-secretase complex; 9p dose response): -1.7
AUC 9p APP-counter assay (γ-secretase complex; [7]): 2.30E+02
IC50 (γ-secretase complex; 9p dose response, averaged, read-out: 9p APP counter assay averaged IC50s): 17 nM
IC50 (γ-secretase complex; 9p dose response, read-out: approximated IC50s 9p APP counter assay): 17 nM
IC50 (γ-secretase complex; 14-point, unit inferred, some fits outside of tested concentration range, read-out: approximated IC50s 14p APP-counter assay): 21 nM
Bottom (Emax) (γ-secretase complex; 14p APP assay DR, Emax indicated independent from assay constraints): 40.6 and 48.3
IC50 (γ-secretase complex; 14p APP assay DR, Notch inhibitor controls, no bottom constraint named, read-out: approximated IC50): 16 nM and 27 nM
approximated LogIC50 [M] (γ-secretase complex; 14p APP assay DR, log10 value, Notch inhibitor controls, no bottom constraint named): -7.8 M and -7.6 M
AUC. 14p APP-counter assay (γ-secretase complex; [8]): 4.62E+02
14p APP counter assay averaged IC50s (log) (γ-secretase complex; [9]): -7.7
AUC APP (γ-secretase complex; [10]): 461.6
APP assay (γ-secretase complex; [11]): higher potency
IC50 (Notch signalling [2]; 14-point, unit inferred, replicates averaged, read-out: approxiated IC50s 14p Notch reporter assay): 1.7 nM
IC50 (Notch signalling [2]; 14p dose response, single replicates, read-out: approximated IC50s 14p Notch reporter assay): 2 nM and 1.5 nM
14p Notch reporter assay averaged IC50s (log) (Notch signalling [2]; [9]): -8.8
SMILES: C[C@H](NC(=O)Cc1cc(F)cc(F)c1)C(=O)N[C@@H]1C(=O)N(C)c2ccccc2-c2ccccc21 [YO-01027, reference compound]
AUC 9p Notch reporter assay (Notch signalling [2]; [7]): 1.99E+02
Bottom (Emax) (Notch signalling [2]; 14p Notch assay DR, Emax indicated independent from assay constraints, in % (unit assumed)): 43.4 and 46.0
approximated LogIC50 [M] (Notch signalling [2]; 14p Notch assay DR, log10 value, Notch inhibitor controls, no bottom constraint named): -8.7 M
AUC 14p Notch reporter assay (Notch signalling [2]; [8]): 3.83E+02
AUC Notch (Notch signalling [2]; [10]): 383.0
Notch assay (Notch signalling [2]; [11]): higher potency
